# Reference: ChEMBL document CHEMBL2202965 (Bioorg Med Chem Lett, 2012)
# Calls of active or inactive are those of the source. No cut-off for these calls is given here. Non-standard residues stand in square brackets, D forms with d. Residues, ends and D or L forms follow the SMILES beside them. ξ: configuration not given here. *: point of attachment. NH(2-(1-naphthyl)ethyl) = c1ccc2c(CCN*)cccc2c1; Phe(4-CONH2) = NC(=O)c1ccc(C[C@H](N)C(=O)O)cc1; Phe(4-COOH) = N[C@@H](Cc1ccc(C(=O)O)cc1)C(=O)O; Tryptamide = c1ccc2c(CCN*)c[nH]c2c1; Tic = O=C(O)[C@@H]1Cc2ccccc2CN1; X3 = c1ccc(-c2ccc(CCN*)cc2)cc1; X2 = c1cc(C2CCCCC2)ccc1CCN*; ξTic = O=C(O)C1Cc2ccccc2CN1; X1 = c1ccc2cc(CCN*)ccc2c1; NHDecyl = CCCCCCCCCCN*; NHHex = CCCCCCN*
# What was measured:
# [1] = target: Delta-type opioid receptor (Homo sapiens) (UniProt P41143); assay: Agonist activity at human delta opioid receptor expressed in HEK293 cells by [35S]GTP binding assay relative to DPDPE; format: functional, cell-based
# Delta-type opioid receptor (Homo sapiens), sequence (P41143 whole entry): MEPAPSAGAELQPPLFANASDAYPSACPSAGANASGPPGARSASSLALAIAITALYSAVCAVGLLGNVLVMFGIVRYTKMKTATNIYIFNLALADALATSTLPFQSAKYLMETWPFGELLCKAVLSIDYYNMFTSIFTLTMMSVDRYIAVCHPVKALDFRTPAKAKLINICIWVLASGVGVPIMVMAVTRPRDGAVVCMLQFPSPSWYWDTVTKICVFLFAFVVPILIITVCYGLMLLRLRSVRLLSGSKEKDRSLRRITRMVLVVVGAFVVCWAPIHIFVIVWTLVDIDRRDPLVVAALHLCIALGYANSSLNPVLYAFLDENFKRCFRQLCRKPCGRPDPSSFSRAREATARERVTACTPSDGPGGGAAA
# [2] = target: Kappa-type opioid receptor (Cavia porcellus, UniProt P41144); assay: Displacement of [3H]U69,593 from kappa opioid receptor in guinea pig brain membrane after 2 hrs; format: cell membranes
# Kappa-type opioid receptor, sequence (P41144 whole entry): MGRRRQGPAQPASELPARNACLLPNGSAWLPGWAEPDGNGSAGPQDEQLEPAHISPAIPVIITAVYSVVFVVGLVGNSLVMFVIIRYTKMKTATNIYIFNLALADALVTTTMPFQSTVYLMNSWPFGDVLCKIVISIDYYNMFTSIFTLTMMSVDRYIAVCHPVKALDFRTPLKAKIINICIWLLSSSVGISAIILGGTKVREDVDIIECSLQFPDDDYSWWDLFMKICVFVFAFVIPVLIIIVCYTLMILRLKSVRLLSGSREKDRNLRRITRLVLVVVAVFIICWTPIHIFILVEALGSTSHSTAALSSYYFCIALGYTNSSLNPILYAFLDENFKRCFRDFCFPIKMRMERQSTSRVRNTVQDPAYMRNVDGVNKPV
# [3] = target: Delta-type opioid receptor (Homo sapiens) (UniProt P41143); assay: Partial agonist activity at human delta opioid receptor expressed in HEK293 cells by [35S]GTP binding assay; format: functional, cell-based
# Cavia porcellus [4] = species on record: Cavia porcellus; assay: (§1) Partial agonist activity at delta opioid receptor in guinea pig ileum; format: functional
# [5] = target: Delta-type opioid receptor (Mus musculus) (UniProt P32300); assay: Agonist activity at delta opioid receptor in mouse vas deferens relative to DPDPE; format: functional, tissue-based
# Delta-type opioid receptor (Mus musculus), sequence (P32300 whole entry): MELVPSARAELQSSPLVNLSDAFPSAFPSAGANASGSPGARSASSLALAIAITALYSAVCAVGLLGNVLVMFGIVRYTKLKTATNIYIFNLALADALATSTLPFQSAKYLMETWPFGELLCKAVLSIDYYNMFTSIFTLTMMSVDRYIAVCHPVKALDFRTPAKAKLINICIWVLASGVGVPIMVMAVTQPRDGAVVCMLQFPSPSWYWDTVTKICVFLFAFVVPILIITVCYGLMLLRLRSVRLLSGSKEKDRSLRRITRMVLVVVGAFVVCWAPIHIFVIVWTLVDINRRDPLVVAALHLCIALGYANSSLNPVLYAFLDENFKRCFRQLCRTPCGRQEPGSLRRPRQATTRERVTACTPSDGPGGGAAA
# [6] = target: Delta-type opioid receptor (Rattus norvegicus) (UniProt P33533); assay: Displacement of [3H]DSLET from delta opioid receptor in rat brain membrane after 2 hrs relative to DPDPE; format: cell membranes
# Delta-type opioid receptor (Rattus norvegicus), sequence (P33533 whole entry): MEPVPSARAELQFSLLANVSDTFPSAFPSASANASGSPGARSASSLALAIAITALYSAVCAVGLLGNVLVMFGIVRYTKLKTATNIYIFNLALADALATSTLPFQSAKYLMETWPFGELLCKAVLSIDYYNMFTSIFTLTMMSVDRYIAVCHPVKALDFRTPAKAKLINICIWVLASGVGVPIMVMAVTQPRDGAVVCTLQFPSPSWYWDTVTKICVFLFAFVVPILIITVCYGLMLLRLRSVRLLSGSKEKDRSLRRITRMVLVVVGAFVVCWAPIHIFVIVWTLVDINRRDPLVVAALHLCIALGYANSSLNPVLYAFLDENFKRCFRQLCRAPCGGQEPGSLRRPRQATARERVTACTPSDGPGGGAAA
# [7] = as §1; format: functional; conditions: Cavia porcellus
# [8] = target: Delta-type opioid receptor (Homo sapiens) (UniProt P41143); assay: Antagonist activity at human delta opioid receptor expressed in HEK293 cells by [35S]GTP binding assay; format: functional, cell-based
# Cavia porcellus [9] = species on record: Cavia porcellus; assay: Agonist activity at delta opioid receptor in guinea pig ileum at 10 uM; format: functional, tissue-based
# [10] = Agonist activity at delta opioid receptor in guinea pig ileum; conditions: Cavia porcellus
smiles,measurement,setting,value
N[C@@H](Cc1ccc(C(=O)NCCc2ccc(-c3ccccc3)cc2)cc1)C(=O)N1Cc2ccccc2CC1C(=O)N[C@@H](Cc1ccccc1)C(=O)N[C@@H](Cc1ccccc1)C(=O)O (some centres not stated) (H-[Phe(4-COOH)](X3)[ξTic]FF-OH),Ratio,[1],0.678
same,Ki,[2],> 10 µM
same,ED50,[3],0.000413 µM
N[C@@H](Cc1ccc(C(=O)NCCc2ccc(C3CCCCC3)cc2)cc1)C(=O)N1Cc2ccccc2C[C@H]1C(=O)N[C@@H](Cc1ccccc1)C(=O)N[C@@H](Cc1ccccc1)C(=O)O (H-[Phe(4-COOH)](X2)[Tic]FF-OH) [listing 1 of 2 here],Ki,[2],> 10 µM
N[C@@H](Cc1ccc(C(=O)NCCc2ccc3ccccc3c2)cc1)C(=O)N1Cc2ccccc2C[C@H]1C(=O)N[C@@H](Cc1ccccc1)C(=O)N[C@@H](Cc1ccccc1)C(=O)O (H-[Phe(4-COOH)](X1)[Tic]FF-OH),Activity,Cavia porcellus [4],Active
same,fold change (FC),[5],2
same,Ki,[2],> 10 µM
same,fold change (FC),[6],5
CCCCCCCCCCNC(=O)c1ccc(C[C@H](N)C(=O)N2Cc3ccccc3C[C@H]2C(=O)N[C@@H](Cc2ccccc2)C(=O)N[C@@H](Cc2ccccc2)C(=O)O)cc1 (H-[Phe(4-COOH)](NHDecyl)[Tic]FF-OH),Ki,[2],> 10 µM
N[C@@H](Cc1ccc(C(=O)NCCc2c[nH]c3ccccc23)cc1)C(=O)N1Cc2ccccc2C[C@H]1C(=O)N[C@@H](Cc1ccccc1)C(=O)N[C@@H](Cc1ccccc1)C(=O)O (H-[Phe(4-COOH)](Tryptamide)[Tic]FF-OH),Activity,Cavia porcellus [4],Active
same,Ki,[2],> 10 µM
N[C@@H](Cc1ccc(C(=O)NCCc2ccc(C3CCCCC3)cc2)cc1)C(=O)N1Cc2ccccc2C[C@H]1C(=O)N[C@@H](Cc1ccccc1)C(=O)N[C@@H](Cc1ccccc1)C(=O)O (H-[Phe(4-COOH)](X2)[Tic]FF-OH) [listing 2 of 2 here],IC35,[7],0.0234 µM
CCCCCCNC(=O)c1ccc(C[C@H](N)C(=O)N2Cc3ccccc3C[C@H]2C(=O)N[C@@H](Cc2ccccc2)C(=O)N[C@@H](Cc2ccccc2)C(=O)O)cc1 (H-[Phe(4-COOH)](NHHex)[Tic]FF-OH),Ki,[2],> 10 µM
NC(=O)c1ccc(C[C@H](N)C(=O)N2Cc3ccccc3C[C@H]2C(=O)N[C@@H](Cc2ccccc2)C(=O)N[C@@H](Cc2ccccc2)C(=O)O)cc1 (H-[Phe(4-CONH2)][Tic]FF-OH),Ki,[2],> 10 µM
same,Activity,[8],Active
N[C@@H](Cc1ccc(C(=O)NCCc2cccc3ccccc23)cc1)C(=O)N1Cc2ccccc2C[C@H]1C(=O)N[C@@H](Cc1ccccc1)C(=O)N[C@@H](Cc1ccccc1)C(=O)O (H-[Phe(4-COOH)](NH(2-(1-naphthyl)ethyl))[Tic]FF-OH),Activity,Cavia porcellus [9],inactive
same,fold change (FC),[5],2
same,Ki,[2],> 10 µM
same,fold change (FC),[6],5
N[C@@H](Cc1ccc(O)cc1)C(=O)N1Cc2ccccc2C[C@H]1C(=O)N[C@@H](Cc1ccccc1)C(=O)N[C@@H](Cc1ccccc1)C(=O)O (H-Y[Tic]FF-OH),IC50,[10],> 10 µM
same,Ki,[2],> 10 µM
same,Activity,[8],Active
